The text below walks through data of patent US20230159468A1, “NOVEL FORMS OF PRACINOSTAT DIHYDROCHLORIDE” (Macfarlan Smith Limited, priority 2020, published 2023).

Common to all, as to assay type: physicochemical
Data set [1] is described as follows: Solubility studies in pH buffer at 37° C. with HPLC analysis. As to conditions: for Observation-1 hr / Observation-4 hr: ~6 mg in 5 mL; for solubility at 1 h / solubility at 4 h: pH buffer, 37 °C, thermodynamic from solid. Here is the method:
Solubility studies are conducted on the pracinostat diHCl co-crystal with fumaric acid according to the following method:
1. Weigh out ˜6 mg pracinostat diHCl co-crystal with fumaric acid in 5 mL pH buffer;
2. Stir samples at 37° C.;
3. After 1 hour, test and record pH, then remove a 2 mL sample for HPLC analysis;
4. Adjust pH of remaining solution using 0.2M NaOH or HCl, if necessary;
5. After 4 hours, test and record pH, then remove a 2 mL sample for HPLC analysis.
The solubility data are collected using an Agilent 1100 Series HPLC system and analyzed using Chemstation software. The method details are listed below.

The nature of data set [2]: Stability studies at 40° C./75% RH, evidenced by XRPD. As to conditions: open vial covered with Kimwipes and sealed vial.
A short description of data set [3]: Dynamic vapor sorption (DVS) with XRPD analysis post-DVS. As to conditions: for Solid form by XRPD analysis post-DVS: after DVS; for DVS weight change / Hygroscopicity by DVS: between 0-90% RH. The text has this: Techniques for characterizing crystal and amorphous forms include but are not limited to differential scanning calorimetry (DSC), thermal gravimetric analysis (TGA), dynamic vapor sorption (DVS), X-ray powder diffractometry (XRPD), single crystal X-ray diffraction (SCXRD), proton nuclear magnetic resonance (^1H-NMR), Fourier transform infrared spectroscopy (FTIR Spectroscopy), and Optical Microscopy.

Data set [4] can be described thus: Solubility in solvent mixture of isopropyl alcohol and water. As to conditions: organic solvent or mixture, isopropyl alcohol:water about 8:1 (v/v), about 58° C. The text has this:
In one embodiment, the volume ratio of isopropyl alcohol to water in the solvent mixture is about 7-9:1; particularly about 8:1. In one embodiment, the solution of pracinostat diHCl is a saturated solution. […] Another embodiment optionally further comprises filtering the combination of pracinostat diHCl and solvent mixture to ensure no particles remain, i.e., to obtain the solution of pracinostat diHCl. In a particular embodiment, the weight to volume ratio of pracinostat diHCl to the solvent mixture is about 84-104 mg:1 mL; particularly about 94 mg:1 mL, wherein if the pracinostat diHCl is not fully dissolved in the solvent mixture, the combination of pracinostat diHCl and solvent mixture is filtered to obtain the solution of pracinostat diHCl. In one embodiment, the weight to volume ratio of Eudragit RS PO to the solution of pracinostat diHCl is about 3.75-6.25 mg:1 mL. In one embodiment, the weight ratio of Eudragit RS PO to pracinostat diHCl is about 1 mg: 14-16 mg. Another embodiment further comprises applying heating during the combining or using a solvent mixture that is heated. In another embodiment, the heating occurs at about 50-70° C. (particularly about 60° C.), or the solvent mixture is heated to about 50-70° C. (particularly about 60° C.). In one embodiment, the cooling is to about 0-10° C., particularly to about 5° C. […]

Where [5] appears, read: starting pH 1.75 buffer, single experiments.
Where [6] appears, read: starting pH 7.26 buffer, single experiments.

In brackets after ≈: the same amount, converted by molar mass. Several values for one entry are separate records, joined by “and”; a condition that tells them apart may be missing. Equal values may be shown once. Read-outs that look alike come from different tables or passages of the source.

Regarding `CCCCc1nc2cc(/C=C/C(=O)NO)ccc2n1CCN(CC)CC` [pracinostat diHCl co-crystal with fumaric acid], in data set [1] (setting [5]), the “Solubility (mg/mL) 1 hr” value is >0.75 mg/mL and >0.98 mg/mL; the “Solubility (mg/mL) 4 hr” value was >0.81 mg/mL and >0.98 mg/mL. Also, in data set [1] (starting pH 1.75 buffer), the Observation-1 hr result was “Clear” and the Observation-4 hr entry is listed as “Clear”. For the same molecule, in data set [1] (setting [6]), the “Solubility (mg/mL) 1 hr” value was 0.16 mg/mL and 0.17 mg/mL; the “Solubility (mg/mL) 4 hr” value was 0.12 mg/mL and 0.09 mg/mL. Besides, in data set [1] (starting pH 7.26 buffer), the Observation-1 hr entry is recorded as “Cloudy” and the Observation-4 hr result is “Cloudy”. Moreover, the “Time stable (solid form, by XRPD)” value in data set [2] is recorded as “at least 9 months”. In addition, in data set [3], the “Solid form by XRPD analysis post-DVS” value was “remains unchanged”, the DVS weight change is on record as roughly 1.7% and the “Hygroscopicity by DVS” value was “slightly hygroscopic”.

Take `CCCCc1nc2cc(/C=C/C(=O)NO)ccc2n1CCN(CC)CC` [pracinostat diHCl co-crystal with L-arginine]: in data set [3], the “Solid form by XRPD analysis post-DVS” value is on record as “not stable”, the DVS weight change is roughly 12% and the “Hygroscopicity by DVS” value is “hygroscopic”.

With `CCCCc1nc2cc(/C=C/C(=O)NO)ccc2n1CCN(CC)CC` [pracinostat diHCl, (E)-3-(2-Butyl-1-(2-(diethylamino)ethyl)-1H-benzo[d]imidazol-5-yl)-N-hydroxyacrylamide], the solubility in data set [4] was roughly 82600 µg/mL.

Consider `CCCCc1nc2cc(/C=C/C(=O)NO)ccc2n1CCN(CC)CC` [pracinostat diHCl co-crystal with glycine], for which, in data set [3], the “Solid form by XRPD analysis post-DVS” value is reported as “remains unchanged”, the DVS weight change is given as roughly 8.0% and the “Hygroscopicity by DVS” value is reported as “hygroscopic”.

With `CCCCc1nc2cc(/C=C/C(=O)NO)ccc2n1CCN(CC)CC`, the solubility at 1 h was greater than 1.07 mg/mL in data set [1] (pH 1.75, simulated gastric fluid, starting pH 1.75 buffer, single experiments, read-out: Solubility (mg/mL) 1 hr); 0.16 ± 0.01 mg/mL (≈ 446 µM) in data set [1] (pH 7.26, aqueous buffer, starting pH 7.26 buffer, average of Exp. 4-6, read-out: Avg. Solubility ± STD (mg/mL) 1 hr); 0.14 mg/mL (≈ 391 µM) in data set [1] (pH 7.26, aqueous buffer, starting pH 7.26 buffer, single experiments, read-out: Solubility (mg/mL) 1 hr). Besides, the solubility at 4 h in data set [1] (pH 1.75, simulated gastric fluid, starting pH 1.75 buffer, single experiments, read-out: Solubility (mg/mL) 4 hr) was greater than 1.08 mg/mL; in data set [1] (pH 7.26, aqueous buffer, starting pH 7.26 buffer, average of Exp. 4-6, read-out: Avg. Solubility ± STD (mg/mL) 4 hr), 0.1 ± 0.02 mg/mL (≈ 279 µM); in data set [1] (pH 7.26, aqueous buffer, starting pH 7.26 buffer, single experiments, read-out: Solubility (mg/mL) 4 hr), 0.08 mg/mL (≈ 223 µM).
